The experiment deals with PARP7 (Homo sapiens (Human), UniProt Q7Z3E1). Kind of experiment: Enzymatic assay for inhibition of PARP7: TR-FRET displacement of biotinylated Probe A from the TIPARP active site. In kind it is binding. Conditions: Table A-1. The method in brief:
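Compound dose-response series were incubated with TIPARP and biotinylated Probe A, with a final 30 min step at 25 °C. TR-FRET was read at 320 nm excitation, 615/665 nm emission and 90 μs delay, using the 665/615 ratio to measure complex formation. % inhibition was fitted with a floating or fixed (1) Hill coefficient.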
On the technique in general: In TR-FRET formats the signal depends on donor and acceptor labels being close together.

A value given as a limit tells only on which side of the number the result lay.

PARP7, sequence (Q7Z3E1 whole entry): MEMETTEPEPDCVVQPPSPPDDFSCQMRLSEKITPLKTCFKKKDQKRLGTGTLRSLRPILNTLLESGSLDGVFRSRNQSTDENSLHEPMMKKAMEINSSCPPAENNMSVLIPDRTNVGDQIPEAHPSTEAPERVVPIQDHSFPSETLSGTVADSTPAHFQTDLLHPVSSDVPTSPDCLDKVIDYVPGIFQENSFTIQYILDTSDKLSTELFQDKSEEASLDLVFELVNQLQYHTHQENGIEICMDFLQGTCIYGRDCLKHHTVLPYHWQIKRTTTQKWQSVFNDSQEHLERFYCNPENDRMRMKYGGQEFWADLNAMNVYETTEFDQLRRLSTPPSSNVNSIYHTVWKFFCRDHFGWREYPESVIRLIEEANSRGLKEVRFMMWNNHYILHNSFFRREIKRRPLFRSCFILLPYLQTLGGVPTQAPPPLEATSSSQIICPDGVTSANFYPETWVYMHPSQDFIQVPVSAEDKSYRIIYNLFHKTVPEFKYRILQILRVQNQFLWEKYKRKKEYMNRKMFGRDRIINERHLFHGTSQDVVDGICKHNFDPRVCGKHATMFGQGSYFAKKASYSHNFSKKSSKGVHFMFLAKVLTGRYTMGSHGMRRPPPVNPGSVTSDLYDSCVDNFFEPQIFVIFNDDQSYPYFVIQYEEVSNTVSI

Regarding `C[C@@H](COCCC(=O)N1CCN(c2cc(C(F)(F)F)ccn2)CC1)Nc1cn[nH]c(=O)c1C(F)(F)F` [Example 674, (S)-5-((1-(3-Oxo-3-(4-(4-(trifluoromethyl)pyridin-2-yl)piperazin-1-yl)propoxy)propan-2-yl)amino)-4-(trifluoromethyl)pyridazin-3(2H)-one], the IC50 is under 0.1 µM. Consider `C[C@@H](COCCC(=O)N1CCN(c2ccccn2)CC1)Nc1cn[nH]c(=O)c1C(F)(F)F` [Example 675, (S)-5-((1-(3-Oxo-3-(4-(pyridin-2-yl)piperazin-1-yl)propoxy)propan-2-yl)amino)-4-(trifluoromethyl)pyridazin-3(2H)-one], for which the IC50 is under 0.1 µM. Under `C[C@@H](COCCC(=O)N1CCN(c2ncccc2C#N)CC1)Nc1cn[nH]c(=O)c1C(F)(F)F` [Example 676, (S)-2-(4-(3-(2-((6-Oxo-5-(trifluoromethyl)-1,6-dihydropyridazin-4-yl)amino)propoxy)propanoyl)piperazin-1-yl)nicotinonitrile] stands under 0.1 µM; under `C[C@@H](COCCC(=O)N1CCN(c2ncccc2C(F)(F)F)CC1)Nc1cn[nH]c(=O)c1C(F)(F)F` [Example 677, (S)-5-((1-(3-Oxo-3-(4-(3-(trifluoromethyl)pyridin-2-yl)piperazin-1-yl)propoxy)propan-2-yl)amino)-4-(trifluoromethyl)pyridazin-3(2H)-one], under 0.1 µM; under `COC[C@@H](COCCC(=O)N1CCN(c2cnc(Cl)cn2)CC1)Nc1cn[nH]c(=O)c1C(F)(F)F` [Example 678, (S)-5-((1-(3-(4-(5-Chloropyrazin-2-yl)piperazin-1-yl)-3-oxopropoxy)-3-methoxypropan-2-yl)amino)-4-(trifluoromethyl)pyridazin-3(2H)-one], under 0.1 µM. To `C[C@@H](COCCC(=O)N1CCN(c2ncc(F)cn2)CC1)Nc1cn[nH]c(=O)c1C(F)(F)F` [Example 679, (S)-5-((1-(3-(4-(5-Fluoropyrimidin-2-yl)piperazin-1-yl)-3-oxopropoxy)propan-2-yl)amino)-4-(trifluoromethyl)pyridazin-3(2H)-one] belongs under 0.1 µM; to `C[C@@H](COCCC(=O)N1CCN(c2ncc(C#N)s2)CC1)Nc1cn[nH]c(=O)c1C(F)(F)F` [Example 680, (S)-2-(4-(3-(2-((6-Oxo-5-(trifluoromethyl)-1,6-dihydropyridazin-4-yl)amino)propoxy)propanoyl)piperazin-1-yl)thiazole-5-carbonitrile], under 0.1 µM; to `COC[C@@H](COCCC(=O)N1CCN(c2cnc(C(F)(F)F)cn2)CC1)Nc1cn[nH]c(=O)c1C(F)(F)F` [Example 681, (S)-5-((1-Methoxy-3-(3-oxo-3-(4-(5-(trifluoromethyl)pyrazin-2-yl)piperazin-1-yl)propoxy)propan-2-yl)amino)-4-(trifluoromethyl)pyridazin-3(2H)-one], under 0.1 µM.

Compound `Cc1ccc(N2CCN(C(=O)CCOC[C@H](C)Oc3cn[nH]c(=O)c3C(F)(F)F)CC2)nc1` [Example 682, (S)-5-((1-(3-(4-(5-Methylpyridin-2-yl)piperazin-1-yl)-3-oxopropoxy)propan-2-yl)oxy)-4-(trifluoromethyl)pyridazin-3(2H)-one] displayed an IC50 of under 0.1 µM. To `C[C@@H](COCCC(=O)N1CCN(c2cnc(C#N)cn2)CC1)Nc1cn[nH]c(=O)c1C(F)(F)F` [Example 683, (S)-5-(4-(3-(2-((6-Oxo-5-(trifluoromethyl)-1,6-dihydropyridazin-4-yl)amino)propoxy)propanoyl)piperazin-1-yl)pyrazine-2-carbonitrile] belongs under 0.1 µM; to `C[C@@H](COCCC(=O)N1CCN(c2ccc(F)cn2)CC1)Nc1cn[nH]c(=O)c1C(F)(F)F` [Example 684, (S)-5-((1-(3-(4-(5-Fluoropyridin-2-yl)piperazin-1-yl)-3-oxopropoxy)propan-2-yl)amino)-4-(trifluoromethyl)pyridazin-3(2H)-one], under 0.1 µM; to `C[C@@H](COCCC(=O)N1CCN(c2ccc(C(F)(F)F)nc2)CC1)Nc1cn[nH]c(=O)c1C(F)(F)F` [Example 685, (S)-5-((1-(3-Oxo-3-(4-(6-(trifluoromethyl)pyridin-3-yl)piperazin-1-yl)propoxy)propan-2-yl)amino)-4-(trifluoromethyl)pyridazin-3(2H)-one], under 0.1 µM. Take `COCC[C@@H](COCCC(=O)N1CCN(c2ncc(C(F)(F)F)cn2)CC1)Nc1cn[nH]c(=O)c1C(F)(F)F` [Example 686, (S)-5-((4-Methoxy-1-(3-oxo-3-(4-(5-(trifluoromethyl)pyrimidin-2-yl)piperazin-1-yl)propoxy)butan-2-yl)amino)-4-(trifluoromethyl)pyridazin-3(2H)-one]: the half-inhibitory concentration (IC50) was under 0.1 µM. To `Cc1cnc(N2CCN(C(=O)CCOC[C@H](C)Oc3cn[nH]c(=O)c3C(F)(F)F)CC2)nc1` [Example 687, (S)-5-((1-(3-(4-(5-Methylpyrimidin-2-yl)piperazin-1-yl)-3-oxopropoxy)propan-2-yl)oxy)-4-(trifluoromethyl)pyridazin-3(2H)-one] belongs under 0.1 µM; to `C[C@@H](COCCC(=O)N1CC[C@@H]2[C@H]1CCN2c1ncc(C(F)(F)F)cn1)Nc1cn[nH]c(=O)c1C(F)(F)F` [Example 688, 5-(((S)-1-(3-Oxo-3-((3aR,6aR)-4-(5-(trifluoromethyl)pyrimidin-2-yl)hexahydropyrrolo[3,2-b]pyrrol-1(2H)-yl)propoxy)propan-2-yl)amino)-4-(trifluoromethyl)pyridazin-3(2H)-one], under 0.1 µM; to `C[C@@H](COCCC(=O)N1CC[C@H]2[C@@H]1CCN2c1ncc(C(F)(F)F)cn1)Nc1cn[nH]c(=O)c1C(F)(F)F` [Example 689, 5-(((S)-1-(3-Oxo-3-((3aS,6aS)-4-(5-(trifluoromethyl)pyrimidin-2-yl)hexahydropyrrolo[3,2-b]pyrrol-1(2H)-yl)propoxy)propan-2-yl)amino)-4-(trifluoromethyl)pyridazin-3(2H)-one], 0.1 to 1 µM. `COC[C@@H](COCCC(=O)N1CCN(c2ncc(C)cn2)CC1)Nc1cn[nH]c(=O)c1C(F)(F)F` [Example 690, (S)-5-((1-Methoxy-3-(3-(4-(5-methylpyrimidin-2-yl)piperazin-1-yl)-3-oxopropoxy)propan-2-yl)amino)-4-(trifluoromethyl)pyridazin-3(2H)-one] gave an IC50 of under 0.1 µM.

`COC[C@@H](COCCC(=O)N1CCN(c2ncc(C(F)(F)F)cn2)CC1)Sc1cn[nH]c(=O)c1C(F)(F)F` [Example 691, (S)-5-((1-Methoxy-3-(3-oxo-3-(4-(5-(trifluoromethyl)pyrimidin-2-yl)piperazin-1-yl)propoxy)propan-2-yl)thio)-4-(trifluoromethyl)pyridazin-3(2H)-one] returned an IC50 of under 0.1 µM. Compound `COC[C@@H](COCCC(=O)N1CCN(c2cnc(Cl)cn2)CC1)Nc1cn[nH]c(=O)c1Br` [Example 693, (S)-4-Bromo-5-((1-(3-(4-(5-chloropyrazin-2-yl)piperazin-1-yl)-3-oxopropoxy)-3-methoxypropan-2-yl)amino)pyridazin-3(2H)-one] showed a half-maximal inhibitory concentration (IC50) of under 0.1 µM.

With `COC[C@@H](COCCC(=O)N1CCN(c2cnc(C)cn2)CC1)Nc1cn[nH]c(=O)c1C(F)(F)F` [Example 695, (S)-5-((1-Methoxy-3-(3-(4-(5-methylpyrazin-2-yl)piperazin-1-yl)-3-oxopropoxy)propan-2-yl)amino)-4-(trifluoromethyl)pyridazin-3(2H)-one], the IC50 was under 0.1 µM.

As usually defined, the IC50 is the midpoint of a concentration-inhibition curve. A low value points to inhibition by little substance.

The values above are taken from patent US10550105B2 (Ribon Therapeutics Inc., priority 2018, dated 2020).
